These results are taken from patent US6703365B2, “Glucagon-like insulinotropic peptides, compositions and methods” (Eli Lilly and Company, priority 1993, dated 2004).

The conditions of data set [1]: stored at 4° C.; cited from earlier work.
Data set [2] in a line: Zinc complexation/precipitation of GLP-1 molecules, protein content of supernatant by 280 nm absorbance (Example 1). The data set is classed as physicochemical. The settings on record: 0.1M HEPES pH 7.4, about 0.1 mg/mL, 22° C., about 18 hours. As for the experimental part: Individual aliquots of 5 different GLP-1 molecules were prepared by well-known, solid phase peptide synthesis and were lyophilized in small vials. Portions of 0.1M HEPES (N-[2-hydroxyethyl]piperazine-N′-[2-ethanesulfonic acid]) buffers at pH 7.4 containing various levels of zinc chloride were added to the aliquots to obtain a protein concentration of about 0.1 mg/mL. The samples were mixed and stored at ambient temperature (22° C.) for about 18 hours. The mixtures were then centrifuged (Fisher Model 235C micro-centrifuge) for 5 minutes. The clear supernatants were pipetted from the tubes. The protein content of the supernatants was estimated by measuring their absorbance at 280 nm in a spectrophotometer (Gilford 260). The theoretical absorbance value for a 0.1 mg/mL solution of the GLP-1 molecules at this wavelength in the 1 cm cuvettes is 0.207.

A short description of data set [3]: Zinc precipitation of GLP-1 (7-36)NH2, 280 nm absorbance and zinc by atomic absorption in supernatant and redissolved precipitate (Example 2). In kind it is physicochemical. As for the experimental part:
5 mg of GLP-1 (7-36)NH2 was completely dissolved in 2.5 ML of pH 7.4, zinc-free 0.1M HEPES buffer. An additional 2.5 mL of pH 7.4, 0.1M HEPES buffer containing 0.6 mM zinc chloride was quickly added. The approximate molar ratio of zinc to GLP-1 (7-36)NH2 in this sample is 1 to 1. The solution immediately became cloudy and precipitation soon formed. The mixture was stored at ambient temperature (22° C.) for 18 hours.
The precipitate became firmly attached to the bottom of the glass vial. The supernatant was completely decanted by pipette. The precipitate was then completely dissolved in 5.0 mL of 0.1N hydrochloric acid. The absorbance at 280 nm was determined for both the supernatant and redissolved precipitate solutions. The zinc levels in these solutions were quantitated by atomic absorption spectrophotometry.

The conditions of data set [4]: intravenous infusion, cited from earlier work.
The mark [5] stands for this setting: Zn/GLP-1 molecule molar ratio 0, theoretical absorbance 0.207.
Where [6] appears, read: Zn/GLP-1 molecule molar ratio 0.3.
[7] abbreviates: Zn/GLP-1 molecule molar ratio 0.5.
[8] abbreviates: Zn/GLP-1 molecule molar ratio 0.7.
The mark [9] stands for this setting: Zn/GLP-1 molecule molar ratio 1.0.
The mark [10] stands for this setting: Zn/GLP-1 molecule molar ratio 3.0.
Setting [11] is: Patients With Maturity Onset Diabetes.

Values joined by “and” are separate entries in the source; they are usually repeats but may differ in a detail not shown here. Equal entries are not always repeated. Where two headings read alike, the source gives them in different places.

As for GLP-1 (7-37), in data set [1], the “Time after sample preparation at which by-products were found” value was “eleven”.

Take “Gly^8-GLP-1(7-36)NH2 [Gly^8-GLP-1 (7-36)NH2]”: the “280 nm Absorbance of supernatant” value came to 0.136 in data set [2] (setting [5]); 0.079 in data set [2] (setting [6]); 0.070 in data set [2] (setting [7]); 0.058 in data set [2] (setting [8]); 0.057 in data set [2] (setting [9]); 0.044 in data set [2] (setting [10]).

As to “Gly^8-Gln^21-GLP-1(7-37)OH [Gly^8-Gln^21 GLP-1 (7-37)OH]”, the “280 nm Absorbance of supernatant” value came out at 0.167 in data set [2] (setting [5]); 0.113 in data set [2] (setting [6]); 0.082 in data set [2] (setting [7]); 0.069 in data set [2] (setting [8]); 0.065 in data set [2] (setting [9]); 0.055 in data set [2] (setting [10]).

On to “His^7-Ala-Glu-Gly^10-Thr-Phe-Thr-Ser-Asp15-Val-Ser-Ser-Tyr-Leu^20-Glu-Gly-Gln-Ala-Ala^25-Lys-Glu-Phe-Ile-Ala^30-Trp-Leu-Val-Lys-Gly^35-Arg-NH2 [GLP-1 (7-36)NH2]”, for which the “Zinc Concentration in Parts per Million” value in data set [3] (Redissolved Precipitate (5 ml)) is recorded as 13.3 Parts per Million; in data set [3] (Supernatant (5 ml)), 9.02 Parts per Million. Also, the “280 nm Absorbance” value in data set [3] (Redissolved Precipitate (5 ml) in 0.1N hydrochloric acid) is given as 1.932; in data set [3] (Supernatant (5 ml), zinc to peptide about 1 to 1, pH 7.4 HEPES, 22° C., 18 hours), 0.118. In data set [3] (equivalent of 13.3 parts per million), the “zinc concentration of the redissolved precipitate solution” value is 203 µM. Also, the “GLP-1 (7-36)NH2 concentration of the redissolved precipitate” value in data set [3] (from 280 nm absorbance 1.932) is 0.933 mg/ml and 283 μM. In addition, the “molar ratio of zinc to GLP-1 (7-36)NH2 in the precipitate” value in data set [3] (ratio to 1) amounted to 0.717. In data set [3] (zinc to peptide about 1 to 1, pH 7.4), the “precipitation from the solution when zinc-containing HEPES solution was added” value is “most of the GLP-1 (7-36)NH2 precipitated from the solution”. Further, the Meal glycemia result in data set [4] (Normal Subjects, twice normal serum concentrations) is given as “Unchanged”; in data set [4] (setting [11]), “Reduced”. Moreover, the “Endogenous insulin secretion in response to a meal” value in data set [4] (Normal Subjects) is recorded as “Unchanged”; in data set [4] (setting [11]) it was “Increased”. Moreover, the Free fatty acids entry in data set [4] (Normal Subjects) is on record as “Reduced (3)”; in data set [4] (setting [11]) it was “Reduced (2)”. Also, in data set [4] (setting [11]), the Fasting glucagon result is reported as “Reduced”. Also, the Fasting glycemia entry in data set [4] (setting [11]) is “Reduced”. Moreover, in data set [4] (setting [11]), the Post-prandial glucagon entry is “Reduced”. The “280 nm Absorbance of supernatant” value is 0.172 in data set [2] (setting [5]); 0.099 in data set [2] (setting [6]); 0.057 in data set [2] (setting [7]); 0.035 in data set [2] (setting [8]); 0.039 in data set [2] (setting [9]); 0.048 in data set [2] (setting [10]).

For the substance “Val^8-GLP-1(7-37) OH [Val^8-GLP-1 (7-37)OH]”, the “280 nm Absorbance of supernatant” value in data set [2] (setting [5]) is listed as 0.187; in data set [2] (setting [6]) it was 0.191; in data set [2] (setting [7]) it was 0.184; in data set [2] (setting [8]) it was 0.180; in data set [2] (setting [9]), 0.173; in data set [2] (setting [10]) it was 0.110.

Take “α-methly-Ala^8-GLP-1(7-36)NH2 [α-methyl-Ala^8-GLP-1 (7-36)NH2]”: the “280 nm Absorbance of supernatant” value stood at 0.163 in data set [2] (setting [5]); 0.134 in data set [2] (setting [6]); 0.098 in data set [2] (setting [7]); 0.079 in data set [2] (setting [8]); 0.076 in data set [2] (setting [9]); 0.055 in data set [2] (setting [10]).
